From US9540389B2, “Antimicrobial potentiators” (priority 2013, dated 2017)
In brackets after ≈: the same amount, converted by molar mass.

Tests used:
[1] = system: diverse panel of E. coli strains; test: Cumulative MICs (MIC50, MIC90) for levofloxacin and piperacillin ± 25 μM MBX2319; assay type: cell-based, Escherichia coli; conditions: E. coli strain panel
Description: • Strains and Reagents. The following strains were obtained from the Keio collection (Baba, et al.: Construction of Escherichia coli K-12 in-frame, single-gene knockout mutants: the Keio collection. In Mol Syst Biol, vol. 2, pp. 2006 0008, (2006)): JW0451 (ΔacrB::kan), JW5503 (ΔtolC::kan), JW3234 (ΔacrF::kan), JW2661 (ΔemrB::kan), JW0863 (ΔmacB::kan). The deletion mutations in each of these strains were transferred to AB1157 using P1 phage transduction (see Table 1). The construction of the E. coli cell-based reporter strain (SOS-XXX) that was used for high throughput screening is described in detail in the supplementary information. […] Irgasan was a generous gift from Ciba Speciality Chemicals, Inc. (High Point, N.C.). Hoechst 33342 (H33342) was purchased from Molecular Probes (Eugene, Oreg.). […] Luria Broth (Miller) and agar were purchased as prepared dehydrated media from Becton Dickenson (Franklin Lakes, N.J.). The compound libraries used in high-throughput screens were purchased from Chembridge (San Diego, Calif.), ChemDiv (San Diego, Calif.), and TimTec (Newark, Del.). MBX2319 was synthesized by Microbiotix, Inc. • Antibacterial Activity Assays. The minimal inhibitory concentration (MIC) of antibacterial agents and biocides were determined using the microbroth dilution method essentially as described in the CLSI protocol M7-A7 (CLSI: Method for dilution antimicrobial susceptibility testing for bacteria that grow aerobically; Approved standard-document M7-A7. In Clinical and Laboratory Standards Institute document M7-A7, Clinical and Laboratory Standards Institute, Wayne, Pa., (2006)), with the following exceptions. LB media was used instead of MHB. […] The final concentration of DMSO in each assay was 2%. […] MIC assays were performed in triplicate and the geometric mean was calculated. Checkerboard MIC assays using an EPI and an antibacterial agent were performed essentially as described (Pillai, et al.: Antimicrobial Combinations. In Antibiotics in Laboratory Medicine, ed. by V. Lorian, pp. 365-440, Lippincott Williams & Wilkins, Philadelphia, Pa., (2005)), with the same modifications used for the MIC assays described above. • Time-Kill Assays. Killing curve assays were performed essentially as described (Pillai, et al.: Antimicrobial Combinations. In Antibiotics in Laboratory Medicine, ed. by V. Lorian, pp. 365-440, Lippincott Williams & Wilkins, Philadelphia, Pa., (2005)). […] Viability was monitored over 2-4 hours by making serial dilutions in saline and spotting 5 μl of each dilution onto the surface of an LB agar plate in triplicate. Colonies were counted after the plates were incubated at 37° C. for 16-18 hr, colony forming units (CFU) per ml were calculated, and the average and standard deviation for the three replicates was determined. […]

AcrAB-TolC efflux pump = AcrAB-TolC efflux pump (Escherichia coli, UniProt P31224); test: H33342 accumulation assay; assay type: cell-based; parameters: endogenous in cells; host or cells: E. coli 331 (fluoroquinolone-resistant); conditions: E. coli 331 (CIPR); 25 μM
AcrAB-TolC efflux pump, sequence (P31224 whole entry): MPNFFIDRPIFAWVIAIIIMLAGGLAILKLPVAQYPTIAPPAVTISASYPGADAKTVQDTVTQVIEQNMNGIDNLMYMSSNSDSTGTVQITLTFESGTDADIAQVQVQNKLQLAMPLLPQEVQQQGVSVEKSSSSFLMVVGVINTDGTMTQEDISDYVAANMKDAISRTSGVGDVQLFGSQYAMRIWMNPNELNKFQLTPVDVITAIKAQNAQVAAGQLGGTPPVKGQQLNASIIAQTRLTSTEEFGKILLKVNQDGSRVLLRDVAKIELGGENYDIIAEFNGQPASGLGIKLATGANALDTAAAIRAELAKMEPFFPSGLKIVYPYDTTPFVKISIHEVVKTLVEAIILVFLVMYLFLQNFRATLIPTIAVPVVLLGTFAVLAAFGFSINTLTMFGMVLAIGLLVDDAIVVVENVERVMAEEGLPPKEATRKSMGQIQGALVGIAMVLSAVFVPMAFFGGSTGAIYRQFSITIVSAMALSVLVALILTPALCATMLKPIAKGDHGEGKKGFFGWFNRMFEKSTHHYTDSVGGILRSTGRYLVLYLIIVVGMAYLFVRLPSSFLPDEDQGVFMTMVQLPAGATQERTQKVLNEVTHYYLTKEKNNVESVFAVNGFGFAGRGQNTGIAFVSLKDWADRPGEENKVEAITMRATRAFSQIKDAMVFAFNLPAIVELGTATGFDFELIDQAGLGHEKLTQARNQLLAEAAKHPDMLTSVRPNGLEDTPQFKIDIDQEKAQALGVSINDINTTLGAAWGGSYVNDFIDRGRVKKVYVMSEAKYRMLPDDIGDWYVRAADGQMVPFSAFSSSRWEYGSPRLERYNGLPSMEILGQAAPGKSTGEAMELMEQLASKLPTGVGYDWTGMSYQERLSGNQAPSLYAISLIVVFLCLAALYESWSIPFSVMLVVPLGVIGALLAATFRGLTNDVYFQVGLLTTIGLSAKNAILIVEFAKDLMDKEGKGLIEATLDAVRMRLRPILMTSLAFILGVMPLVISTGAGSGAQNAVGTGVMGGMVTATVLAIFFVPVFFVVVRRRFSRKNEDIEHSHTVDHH
AcrAB-TolC efflux pump, sequence (P0AE06 25-397, further chain): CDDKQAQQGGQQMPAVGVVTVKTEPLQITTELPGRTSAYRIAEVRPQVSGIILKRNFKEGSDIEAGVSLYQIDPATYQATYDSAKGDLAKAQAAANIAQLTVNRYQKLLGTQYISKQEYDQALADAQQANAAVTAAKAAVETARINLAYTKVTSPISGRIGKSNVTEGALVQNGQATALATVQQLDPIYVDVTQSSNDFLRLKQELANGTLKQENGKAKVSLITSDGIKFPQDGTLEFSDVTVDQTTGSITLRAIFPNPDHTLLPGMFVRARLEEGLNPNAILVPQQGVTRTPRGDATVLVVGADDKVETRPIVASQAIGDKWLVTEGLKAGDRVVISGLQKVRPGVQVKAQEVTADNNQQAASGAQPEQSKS
AcrAB-TolC efflux pump, sequence (P02930 23-493, further chain): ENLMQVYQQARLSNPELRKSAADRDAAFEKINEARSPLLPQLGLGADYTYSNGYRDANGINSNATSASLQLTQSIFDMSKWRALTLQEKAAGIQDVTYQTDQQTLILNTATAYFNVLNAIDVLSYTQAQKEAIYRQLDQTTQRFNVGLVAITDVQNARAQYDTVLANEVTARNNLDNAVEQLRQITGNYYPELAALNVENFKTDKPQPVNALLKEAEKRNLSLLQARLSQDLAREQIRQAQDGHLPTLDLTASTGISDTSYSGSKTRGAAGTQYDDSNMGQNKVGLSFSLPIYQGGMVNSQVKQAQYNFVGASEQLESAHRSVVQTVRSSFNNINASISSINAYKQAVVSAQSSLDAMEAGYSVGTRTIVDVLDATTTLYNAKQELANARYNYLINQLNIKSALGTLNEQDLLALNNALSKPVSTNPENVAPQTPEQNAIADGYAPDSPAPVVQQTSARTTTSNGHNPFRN

[2] = system: Enterobacter aerogenes ATCC 13048; test: MIC assay (microbroth dilution) ± 25 μM EPI; assay type: cell-based
Description: (§1) • Strains and Reagents. The following strains were obtained from the Keio collection (Baba, et al.: Construction of Escherichia coli K-12 in-frame, single-gene knockout mutants: the Keio collection. In Mol Syst Biol, vol. 2, pp. 2006 0008, (2006)): JW0451 (ΔacrB::kan), JW5503 (ΔtolC::kan), JW3234 (ΔacrF::kan), JW2661 (ΔemrB::kan), JW0863 (ΔmacB::kan). The deletion mutations in each of these strains were transferred to AB1157 using P1 phage transduction (see Table 1). The construction of the E. coli cell-based reporter strain (SOS-XXX) that was used for high throughput screening is described in detail in the supplementary information. […] Irgasan was a generous gift from Ciba Speciality Chemicals, Inc. (High Point, N.C.). Hoechst 33342 (H33342) was purchased from Molecular Probes (Eugene, Oreg.). […] Luria Broth (Miller) and agar were purchased as prepared dehydrated media from Becton Dickenson (Franklin Lakes, N.J.). The compound libraries used in high-throughput screens were purchased from Chembridge (San Diego, Calif.), ChemDiv (San Diego, Calif.), and TimTec (Newark, Del.). MBX2319 was synthesized by Microbiotix, Inc. • Antibacterial Activity Assays. The minimal inhibitory concentration (MIC) of antibacterial agents and biocides were determined using the microbroth dilution method essentially as described in the CLSI protocol M7-A7 (CLSI: Method for dilution antimicrobial susceptibility testing for bacteria that grow aerobically; Approved standard-document M7-A7. In Clinical and Laboratory Standards Institute document M7-A7, Clinical and Laboratory Standards Institute, Wayne, Pa., (2006)), with the following exceptions. LB media was used instead of MHB. […] The final concentration of DMSO in each assay was 2%. […] MIC assays were performed in triplicate and the geometric mean was calculated. Checkerboard MIC assays using an EPI and an antibacterial agent were performed essentially as described (Pillai, et al.: Antimicrobial Combinations. In Antibiotics in Laboratory Medicine, ed. by V. Lorian, pp. 365-440, Lippincott Williams & Wilkins, Philadelphia, Pa., (2005)), with the same modifications used for the MIC assays described above. • Time-Kill Assays. Killing curve assays were performed essentially as described (Pillai, et al.: Antimicrobial Combinations. In Antibiotics in Laboratory Medicine, ed. by V. Lorian, pp. 365-440, Lippincott Williams & Wilkins, Philadelphia, Pa., (2005)). Exponential bacterial cultures grown in LB were diluted to a cell density of ˜1×10^7 in LB followed by addition of CIP and/or an EPI. Viability was monitored over 2-4 hours by making serial dilutions in saline and spotting 5 μl of each dilution onto the surface of an LB agar plate in triplicate. Colonies were counted after the plates were incubated at 37° C. for 16-18 hr, colony forming units (CFU) per ml were calculated, and the average and standard deviation for the three replicates was determined. For treatments that decreased CFU/ml below the limit of detection for the spot plating method, the 100 μl samples were diluted into 5 ml LB top agar, were poured onto LB agar plates, and incubated for 18 hr at 37° C. To calculate the fraction of the control for each sample, the average CFU/ml values for treated samples were divided by those from the same sample at 0 h (time=0). Each experiment was repeated at least three times, and a representative experiment is shown. • H33342 Accumulation Assay. The rate of accumulation of the fluorescent dye Hoechst 33342 (H33342), which is a substrate of a wide variety of bacterial efflux pumps (van den Berg van Saparoea, et al., Biochemistry, vol. 44, pp. 16931-16938, (2005)), can be used to estimate the activity of the major efflux pumps in E. coli and many other bacterial species. The H33342 accumulation assay was used to evaluate the effect of EPIs on the activity of the AcrAB-TolC efflux pump in several bacterial species essentially as described (Coldham, et al., J Antimicrob Chemother, vol. 65, pp. 1655-1663, (2010)). […]

Escherichia coli 331 = test: MIC assay (microbroth dilution) ± 25 μM EPI; assay type: cell-based; conditions: E. coli 331
Description: as §1

Escherichia coli AB1157 [3] = test: MIC assay (microbroth dilution) ± 25 μM EPI; assay type: cell-based; conditions: Escherichia coli, AB1157, read-out: MICs (μg/ml) ± EPIs: None
Description: as §1

[4] = system: Escherichia coli ATCC 25922; test: MIC assay (microbroth dilution) ± 25 μM EPI; assay type: cell-based
Description: as §1

[5] = system: Klebsiella pneumoniae ATCC 700603; test: MIC assay (microbroth dilution) ± 25 μM EPI; assay type: cell-based
Description: as §1

[6] = system: Salmonella enterica ATCC 14028; test: MIC assay (microbroth dilution) ± 25 μM EPI; assay type: cell-based
Description: as §1

[7] = system: Shigella flexneri ATCC 12022; test: MIC assay (microbroth dilution) ± 25 μM EPI; assay type: cell-based
Description: as §1

Escherichia coli AB1157 [8] = test: microbe, parasite or virus in culture
[9] = MIC no cmpd/MIC + 25 μM MBX2319

SMILES: CC1(C)Cc2c(C#N)c(SCCc3ccccc3)nc(N3CCOCC3)c2CO1 [MBX2319]
- decrease of MIC50 for LEV [1]: four fold
- decrease of MIC90 for LEV [1]: four fold
- effect on MIC50 for PIP [1]: did not have a significant effect
- effect on MIC90 for PIP [1]: did not have a significant effect
- H33342 accumulation (AcrAB-TolC efflux pump): weak activity

SMILES: CCN1CCN(C(=O)N[C@@H](C(=O)N[C@@H]2C(=O)N3[C@@H]2SC(C)(C)[C@@H]3C(=O)O)c2ccccc2)C(=O)C1=O [Piperacillin, piperacillin]
- MIC (μg/ml) ± EPI: MBX2319 ([2]; + 25 μM MBX2319): 1.4 µg/mL
- MIC (μg/ml) ± EPI: PAβN ([2]; + 25 μM PAβN): 16 µg/mL
- MIC ([2]; Klebsiella aerogenes, ATCC13048, no EPI, read-out: MIC (μg/ml) ± EPI: None): 4 µg/mL
- MIC Ratio MBX2319 [2, 9]: 2.8
- MIC Ratio PAβN ([2]; MIC no cmpd/MIC + 25 μM PAβN): 0.2
- MIC (μg/ml) ± EPI: MBX2319 (Escherichia coli 331; + 25 μM MBX2319): 0.707 µg/mL
- MIC (μg/ml) ± EPI: PAβN (Escherichia coli 331; + 25 μM PAβN): 4 µg/mL
- MIC Ratio MBX2319 (Escherichia coli 331; [9]): 5.6
- MIC Ratio PAβN (Escherichia coli 331; MIC no cmpd/MIC + 25 μM PAβN): 1
- MIC (Escherichia coli 331; Escherichia coli, no EPI, read-out: MIC (μg/ml) ± EPI: None): 4 µg/mL
- MIC (Escherichia coli AB1157 [3]): 4 µg/mL
- MIC (μg/ml) ± EPI: MBX2319 ([4]; E. coli ATCC 25922, + 25 μM MBX2319): 1.68 µg/mL
- MIC (μg/ml) ± EPI: PAβN ([4]; E. coli ATCC 25922, + 25 μM PAβN): 4 µg/mL
- MIC Ratio MBX2319 ([4]; E. coli ATCC 25922, MIC no cmpd/MIC + 25 μM MBX2319): 1.7
- MIC Ratio PAβN ([4]; E. coli ATCC 25922, MIC no cmpd/MIC + 25 μM PAβN): 0.7
- MIC ([4]; Escherichia coli, ATCC25922, read-out: MIC (μg/ml) ± EPI: None): 2.83 µg/mL
- MIC (μg/ml) ± EPI: MBX2319 ([5]; + 25 μM MBX2319): 113 µg/mL
- MIC (μg/ml) ± EPI: PAβN ([5]; + 25 μM PAβN): 113 µg/mL
- MIC ([5]; ATCC700603, no EPI, read-out: MIC (μg/ml) ± EPI: None): 113 µg/mL
- MIC Ratio MBX2319 [5, 9]: 1
- MIC Ratio PAβN ([5]; MIC no cmpd/MIC + 25 μM PAβN): 1
- MIC (μg/ml) ± EPI: MBX2319 ([6]; + 25 μM MBX2319): 0.5 µg/mL
- MIC (μg/ml) ± EPI: PAβN ([6]; + 25 μM PAβN): 4 µg/mL
- MIC ([6]; ATCC14028, no EPI, read-out: MIC (μg/ml) ± EPI: None): 2.4 µg/mL
- MIC Ratio MBX2319 [6, 9]: 4.8
- MIC Ratio PAβN ([6]; MIC no cmpd/MIC + 25 μM PAβN): 0.6
- MIC (μg/ml) ± EPI: MBX2319 ([7]; Shigella flexneri ATCC 12022, + 25 μM MBX2319): 0.25 µg/mL
- MIC (μg/ml) ± EPI: PAβN ([7]; Shigella flexneri ATCC 12022, + 25 μM PAβN): 1 µg/mL
- MIC Ratio MBX2319 ([7]; Shigella flexneri ATCC 12022, MIC no cmpd/MIC + 25 μM MBX2319): 4
- MIC Ratio PAβN ([7]; Shigella flexneri ATCC 12022, MIC no cmpd/MIC + 25 μM PAβN): 1
- MIC ([7]; Shigella flexneri, ATCC12022, read-out: MIC (μg/ml) ± EPI: None): 1 µg/mL
- MIC (Escherichia coli AB1157 [8]): 4 µg/mL (≈ 7.73 µM)
